The values that follow come from the NIST ThermoML archive (doi:10.1021/je060157s).

For the series the following is noted: Liquid.

Molecules are shown by their SMILES. Values joined by “and” are separate entries in the source; they are usually repeats but may differ in a detail not shown here. Equal values may be shown once. ± gives the expanded uncertainty stated by the source.

With `CC(O)c1ccccc1` (stereo not given) [1-phenylethanol], the vapor or sublimation pressure (as a rule, the pressure of vapour in equilibrium with the condensed phase) was 0.006 ± 0.006 kPa (293.15 K); 0.009952 ± 0.0035 kPa (293.33 K); 0.009956 ± 0.0035 kPa (293.34 K); 0.016 ± 0.007 kPa (303.15 K); 0.02451 ± 0.0047 kPa and 0.0219 ± 0.0046 kPa (303.35 K); 0.041 ± 0.009 kPa (313.15 K). Further, the “vapor or sublimation pressure” value (313.37 K) was 0.06281 ± 0.0061 kPa and 0.06414 ± 0.0062 kPa; the “vapor or sublimation pressure” value (323.15 K) was found to be 0.095 ± 0.014 kPa; the “vapor or sublimation pressure” value (323.39 K) is 0.1472 ± 0.013 kPa and 0.136 ± 0.013 kPa and 0.1419 ± 0.013 kPa; the “vapor or sublimation pressure” value (333.15 K) is 0.203 ± 0.021 kPa; the “vapor or sublimation pressure” value (333.39 K) is 0.2635 ± 0.016 kPa and 0.2649 ± 0.016 kPa; the “vapor or sublimation pressure” value (343.15 K) turned out to be 0.404 ± 0.033 kPa. The “vapor or sublimation pressure” value (343.42 K) is 0.515 ± 0.022 kPa and 0.5189 ± 0.022 kPa; the “vapor or sublimation pressure” value (353.15 K) is recorded as 0.759 ± 0.055 kPa; the “vapor or sublimation pressure” value (353.43 K) was 0.902 ± 0.032 kPa and 0.9053 ± 0.032 kPa; the “vapor or sublimation pressure” value (363.15 K) came out at 1.352 ± 0.079 kPa; the “vapor or sublimation pressure” value (363.43 K) was found to be 1.556 ± 0.041 kPa.
In the case of `O` [water], the “vapor or sublimation pressure” value (293.15 K) is 2.333 ± 0.091 kPa; the “vapor or sublimation pressure” value (303.15 K) turned out to be 4.24 ± 0.12 kPa; the “vapor or sublimation pressure” value (313.15 K) is 7.376 ± 0.15 kPa; the “vapor or sublimation pressure” value (323.15 K) is listed as 12.34 ± 0.22 kPa; the “vapor or sublimation pressure” value (333.15 K) came to 19.92 ± 0.31 kPa; the “vapor or sublimation pressure” value (343.15 K) worked out at 31.17 ± 0.45 kPa. Also, the “vapor or sublimation pressure” value runs as follows: (353.15 K) 47.38 ± 0.66 kPa; (363.15 K) 70.18 ± 0.94 kPa.
